Non-standard residues stand in square brackets, D forms with d. Residues, ends and D or L forms follow the SMILES beside them.
Experiments:
[1] = Peptide stability in rat plasma after i.v. bolus injection (radio-iodinated peptide, TCA precipitation, paper chromatography); assay type: in vivo; conditions: 15 minutes after i.v. injection
Experimental: d) Chirality changes. Replacement of the natural L-residue by the D-enantiomers dramatically increases resistance to proteolytic degradation. […] Indeed, approximately 90% of iAβ1 was degraded within minutes after intravenous injection. […] For detection, the peptide was radio-iodinated using standard procedures. Peptide stability was evaluated after i.v bolus injection in rats by precipitation with trichloroacetic acid. Quantitation of the intact peptide was also done by paper chromatography. […] In addition to the latter, D-residue are used after each proline amino acid, since it has been reported that a frequent endopeptidase cleavage site is after this residue by an enzyme known as prolylendopeptidase.

[2] = In vitro assay of peptide stability in fresh human plasma; assay type: in vitro ADME
Experimental: One of the major drawbacks for the use of peptides as drugs is their rapid proteolytic degradation in biological fluids and tissues. In in vitro experiments, iAβ5, (Seq LPFFD- also depicted as Leu Pro Phe Phe Asp herein) degraded very quickly in vitro after incubation with fresh human plasma. […] Since it was not possible to identify any metabolic fragments as a result of the proteolytic digestion, it seems likely that the degradation is mainly done by unspecific exopeptidases. This conclusion is supported by the finding that protection of amino- and carboxy-terminus of the peptide by acetylation and amidation, respectively, (to form Ac-iAβ5-Am—also depicted as Ac-Leu Pro Phe Phe Asp-Am herein) dramatically increases the stability of the peptide in vitro.
In vitro assays of peptide stability. Peptides were prepared as a 1 μg/μl solution in water. 20 μl of the peptide solution was diluted in 80 μl of fresh human plasma. The solution was incubated at 37° C. for different time periods and the reaction was stopped by adding a complete cocktail of protease inhibitors. The bulk of the plasma proteins (none of the peptide) were precipitated in cold methanol (mix/MeOH, 4/5, v/v) for one hour at −20° C. […] The peak area corresponding to the intact peptide was measured and compared with an equivalent sample incubated without plasma.

[3] = In vitro metabolism in rat liver microsomes; assay type: in vitro ADME; conditions: one hour of incubation at 37°, read-out: peptide remained intact
[4] = In vitro metabolism in human liver microsomes; assay type: in vitro ADME; conditions: one hour of incubation at 37°, read-out: peptide remained intact
Aβ = conditions: prior art; cited from earlier work
Aβ1-42 amyloid deposits = Aβ1-42 amyloid deposits (Homo sapiens, UniProt P05067); conditions: cited from earlier work
Chain of Aβ1-42 amyloid deposits (P05067 672-713): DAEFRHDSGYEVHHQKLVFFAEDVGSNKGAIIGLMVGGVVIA

[5] = system: neuronal death induced by oligomeric Aβ; conditions: cell culture, prior art; cited from earlier work
PrP = PrP (Homo sapiens, UniProt P04156); conditions: cited from earlier work
Aβ1-40 = Aβ1-40 (Homo sapiens, UniProt P05067); experiment: In vitro amyloid formation assay, thioflavine T fluorescence; assay type: biochemical; conditions: Aβ incubated with peptide, ThT fluorescence, FIG. 5a
Chain of Aβ1-40 (P05067 672-711): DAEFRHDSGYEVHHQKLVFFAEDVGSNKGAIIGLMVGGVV

CC[C@@H](C)[C@@H](NC(=O)[C@H]1CCCN1C(=O)[C@H](NC(=O)[C@H]1CCCN1C(=O)[C@@H](Cc1ccc(O)cc1)NC(=O)[C@@H](Cc1ccccc1)NC(=O)[C@H]1CCCN1C(=O)[C@@H](CC(C)C)NC(=O)[C@@H](CC(=O)O)NC(=O)[C@H](N)CCCNC(=N)N)C(C)C)C(=O)N[C@H](CC(=O)O)C(=O)O (H-[dR][dD][dL][dP][dF][dY][dP][dV][dP][dI][dD]-OH; N-terminus and C-terminus assumed)
degradation in the plasma after injection [1]: virtually no degradation

CC(=O)N[C@@H](CC(C)C)C(=O)N1CCC[C@H]1C(=O)N[C@@H](Cc1ccccc1)C(=O)N[C@@H](Cc1ccccc1)C(=O)N[C@@H](CC(=O)O)C(N)=O [Ac-iAβ5-Am, Ac-Leu Pro Phe Phe Asp-Am] (Ac-LPFFD-NH2)
period the peptide remained stable in human plasma ([2]; human plasma, FIG. 4b): more than 24 hours | remaining at 1 h [3]: 76.3% | remaining at 1 h [4]: 81.5%

CC(C)C[C@H](N)C(=O)N1CCC[C@H]1C(=O)N[C@@H](Cc1ccccc1)C(=O)N[C@@H](Cc1ccccc1)C(=O)N[C@@H](CC(=O)O)C(=O)O [iAβ5, Leu Pro Phe Phe Asp] (H-LPFFD-OH)
half-life at 0.2 μg/μl ([2]; fresh human plasma, 37° C., FIG. 4a, read-out: time in which fifty percent of the peptide disappeared in plasma): ~5 min | inhibition of amyloid formation and dissolution of preformed fibrils in vitro (Aβ): inhibit peptide conformational changes that result in amyloid formation and also dissolved preformed fibrils | cerebral Aβ accumulation and deposition of fibrillar amyloid-like lesions (Aβ1-42 amyloid deposits; co-injection with Aβ1-42, rat brain, prior art): decreased cerebral Aβ accumulation and completely blocked the deposition of fibrillar amyloid-like lesions | inhibition of amyloid plaque formation (Aβ1-42 amyloid deposits; co-injection with Aβ1-42, rat): 50% | dissolution of preformed deposits (Aβ1-42 amyloid deposits; i.c. injection in animals already containing amyloid plaques): 67% | prevention of neuronal death [5]: capable of preventing the neuronal death

Asp Ala Pro Ala Ala Pro Ala Gly Pro ala Val Pro Val [iPrP13]
inhibitory activity on PrP conformational change among a set of β-sheet breaker peptides (PrP): showed the greatest activity

Aβ18-21: short Aβ fragment (VFFA; Amyloid-beta protein 42; UniProt P05067 689-692, looked up, fragment)
activity in inhibiting amyloid formation (fibrillogenesis) (Aβ1-40): no effect on fibrillogenesis or slightly increased amyloid formation

GYLTVAAVFRG [CP2, unrelated control peptide]
activity in inhibiting amyloid formation (fibrillogenesis) (Aβ1-40): no effect on fibrillogenesis or slightly increased amyloid formation

ISEVKMDAEF [CP10, unrelated control peptide]
activity in inhibiting amyloid formation (fibrillogenesis) (Aβ1-40): no effect on fibrillogenesis or slightly increased amyloid formation

RDLPFYPVPID [iAβ1]
inhibition of amyloid formation and dissolution of preformed fibrils in vitro (Aβ): inhibit peptide conformational changes that result in amyloid formation and also dissolved preformed fibrils

VHVSEEGTEPA [CP1, unrelated control peptide]
activity in inhibiting amyloid formation (fibrillogenesis) (Aβ1-40): no effect on fibrillogenesis or slightly increased amyloid formation

Source: patent US6689753B1, “β sheet breaker peptide analogs that inhibit β pleated sheet formation in amyloid β-peptide” (Axonyx, Inc., priority 1999, dated 2004)
